# From ChEMBL document CHEMBL1201862, “PubChem BioAssay data set” (2004)
#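 Method: 48-hour compound exposure of cells in 96-well plates, five concentrations, linear interpolation of endpoints. At the GI50, growth is halved.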 Active and inactive are the calls of the source. Cut-off read from the data, not from the text of the source: active = GI50 up to about 1.1 µM and inactive = higher.
# Legend:
# Experiment in all cases: NCI tumour cell line growth inhibition, 48 h
# [1] = system: 786-0
# [2] = system: A498
# [3] = system: A549
# [4] = system: ACHN
# [5] = system: CAKI-1
# [6] = system: COLO 205
# [7] = system: DLD-1
# [8] = system: DMS-114
# [9] = system: DMS-273
# [10] = system: EKVX
# [11] = system: HCC 2998
# [12] = system: HCT-116
# [13] = system: HCT-15
# [14] = system: HOP-18
# [15] = system: HOP-62
# [16] = system: HOP-92
# [17] = system: HT-29
# [18] = system: IGROV-1
# [19] = system: K562
# [20] = system: KM-20L2
# [21] = system: KM12
# [22] = system: LXFL 529
# [23] = system: M14
# [24] = system: MOLT-4
# [25] = system: Malme-3M
# [26] = system: NCI-H226
# [27] = system: NCI-H23
# [28] = system: NCI-H460
# [29] = system: NCI-H522
# [30] = system: OVCAR-3
# [31] = system: OVCAR-4
# [32] = system: OVCAR-5
# [33] = system: OVCAR-8
# [34] = system: RPMI-8226
# [35] = system: RXF 393
# [36] = system: SF-268
# [37] = system: SF-295
# [38] = system: SF-539
# [39] = system: SK-MEL-2
# [40] = system: SK-MEL-5
# [41] = system: SK-OV-3
# [42] = system: SN12C
# [43] = system: SNB-19
# [44] = system: SNB-75
# [45] = system: SNB-78
# [46] = system: SR
# [47] = system: SW-620
# [48] = system: TK-10
# [49] = system: U-251
# [50] = system: UACC-257
# [51] = system: UACC-62
# [52] = system: UO-31
# [53] = system: CCRF-CEM
# [54] = system: HL-60
# [55] = system: M19-MEL
# [56] = system: SK-MEL-28
# [57] = system: LOX IMVI
smiles,measurement,setting,value
O=C(O)c1ccccc1Cc1ccco1,GI50,[1],> 100 µM (inactive)
same,GI50,[2],> 100 µM (inactive)
same,GI50,[3],> 100 µM (inactive)
same,GI50,[4],> 100 µM (inactive)
same,GI50,[5],> 100 µM (inactive)
same,GI50,[6],> 100 µM (inactive)
same,GI50,[7],> 100 µM (inactive)
same,GI50,[8],> 100 µM (inactive)
same,GI50,[9],> 100 µM (inactive)
same,GI50,[10],> 100 µM (inactive)
same,GI50,[11],> 100 µM (inactive)
same,GI50,[12],> 100 µM (inactive)
same,GI50,[13],> 100 µM
same,GI50,[14],> 100 µM (inactive)
same,GI50,[15],> 100 µM (inactive)
same,GI50,[16],> 100 µM (inactive)
same,GI50,[17],> 100 µM (inactive)
same,GI50,[18],> 100 µM (inactive)
same,GI50,[19],> 100 µM (inactive)
same,GI50,[20],> 100 µM (inactive)
same,GI50,[21],> 100 µM (inactive)
same,GI50,[22],> 100 µM (inactive)
same,GI50,[23],> 100 µM (inactive)
same,GI50,[24],> 100 µM (inactive)
same,GI50,[25],> 100 µM (inactive)
same,GI50,[26],> 100 µM (inactive)
same,GI50,[27],> 100 µM (inactive)
same,GI50,[28],> 100 µM (inactive)
same,GI50,[29],> 100 µM (inactive)
same,GI50,[30],> 100 µM (inactive)
same,GI50,[31],> 100 µM (inactive)
same,GI50,[32],> 100 µM (inactive)
same,GI50,[33],> 100 µM (inactive)
same,GI50,[34],> 100 µM (inactive)
same,GI50,[35],> 100 µM (inactive)
same,GI50,[36],> 100 µM (inactive)
same,GI50,[37],> 100 µM (inactive)
same,GI50,[38],> 100 µM (inactive)
same,GI50,[39],> 100 µM (inactive)
same,GI50,[40],> 100 µM (inactive)
same,GI50,[41],> 100 µM (inactive)
same,GI50,[42],> 100 µM (inactive)
same,GI50,[43],> 100 µM (inactive)
same,GI50,[44],> 100 µM (inactive)
same,GI50,[45],> 100 µM (inactive)
same,GI50,[46],> 100 µM (inactive)
same,GI50,[47],> 100 µM (inactive)
same,GI50,[48],> 100 µM (inactive)
same,GI50,[49],> 100 µM (inactive)
same,GI50,[50],> 100 µM (inactive)
same,GI50,[51],> 100 µM (inactive)
same,GI50,[52],> 100 µM (inactive)
NCCN1C(=O)C2C3c4ccccc4C(c4ccccc43)C2C1=O (centres undefined),GI50,[1],> 100 µM (inactive)
same,GI50,[2],> 100 µM (inactive)
same,GI50,[3],> 100 µM (inactive)
same,GI50,[4],> 100 µM (inactive)
same,GI50,[5],> 100 µM (inactive)
same,GI50,[53],> 100 µM (inactive)
same,GI50,[6],> 100 µM (inactive)
same,GI50,[7],> 100 µM (inactive)
same,GI50,[8],> 100 µM (inactive)
same,GI50,[9],> 100 µM (inactive)
same,GI50,[10],> 100 µM (inactive)
same,GI50,[11],> 100 µM (inactive)
same,GI50,[12],> 100 µM (inactive)
same,GI50,[13],> 100 µM
same,GI50,[54],> 100 µM (inactive)
same,GI50,[14],> 100 µM (inactive)
same,GI50,[15],> 100 µM (inactive)
same,GI50,[16],28.2 µM (inactive)
same,GI50,[17],> 100 µM (inactive)
same,GI50,[18],> 100 µM (inactive)
same,GI50,[19],> 100 µM (inactive)
same,GI50,[20],> 100 µM (inactive)
same,GI50,[21],> 100 µM (inactive)
same,GI50,[22],> 100 µM (inactive)
same,GI50,[23],> 100 µM (inactive)
same,GI50,[55],> 100 µM (inactive)
same,GI50,[24],> 100 µM (inactive)
same,GI50,[25],> 100 µM (inactive)
same,GI50,[26],> 100 µM (inactive)
same,GI50,[27],> 100 µM (inactive)
same,GI50,[28],> 100 µM (inactive)
same,GI50,[29],> 100 µM (inactive)
same,GI50,[30],> 100 µM (inactive)
same,GI50,[31],> 100 µM (inactive)
same,GI50,[32],> 100 µM (inactive)
same,GI50,[33],> 100 µM (inactive)
same,GI50,[34],> 100 µM (inactive)
same,GI50,[36],> 100 µM (inactive)
same,GI50,[37],> 100 µM (inactive)
same,GI50,[38],> 100 µM (inactive)
same,GI50,[56],> 100 µM (inactive)
same,GI50,[39],> 100 µM (inactive)
same,GI50,[40],> 100 µM (inactive)
same,GI50,[41],> 100 µM (inactive)
same,GI50,[42],> 100 µM (inactive)
same,GI50,[43],> 100 µM (inactive)
same,GI50,[44],43.3 µM (inactive)
same,GI50,[45],> 100 µM (inactive)
same,GI50,[47],> 100 µM (inactive)
same,GI50,[48],> 100 µM (inactive)
same,GI50,[49],> 100 µM (inactive)
same,GI50,[50],> 100 µM (inactive)
same,GI50,[51],> 100 µM (inactive)
same,GI50,[52],> 100 µM (inactive)
[N-]=[N+]=NC(CCl)c1cn([C@H]2C[C@H](O)[C@@H](CO)O2)c(=O)[nH]c1=O (some centres undefined),GI50,[1],> 100 µM (inactive)
same,GI50,[3],> 100 µM (inactive)
same,GI50,[4],> 100 µM (inactive)
same,GI50,[5],> 100 µM (inactive)
same,GI50,[53],> 100 µM (inactive)
same,GI50,[6],> 100 µM (inactive)
same,GI50,[7],> 100 µM (inactive)
same,GI50,[8],> 100 µM (inactive)
same,GI50,[9],> 100 µM (inactive)
same,GI50,[10],> 100 µM (inactive)
same,GI50,[11],> 100 µM (inactive)
same,GI50,[12],> 100 µM (inactive)
same,GI50,[13],> 100 µM
same,GI50,[54],> 100 µM (inactive)
same,GI50,[14],> 100 µM (inactive)
same,GI50,[15],> 100 µM (inactive)
same,GI50,[16],> 100 µM (inactive)
same,GI50,[17],> 100 µM (inactive)
same,GI50,[18],> 100 µM (inactive)
same,GI50,[19],> 100 µM (inactive)
same,GI50,[20],> 100 µM (inactive)
same,GI50,[21],> 100 µM (inactive)
same,GI50,[57],> 100 µM (inactive)
same,GI50,[22],> 100 µM (inactive)
same,GI50,[23],> 100 µM (inactive)
same,GI50,[55],> 100 µM (inactive)
same,GI50,[24],> 100 µM (inactive)
same,GI50,[25],> 100 µM (inactive)
same,GI50,[26],> 100 µM (inactive)
same,GI50,[27],> 100 µM (inactive)
same,GI50,[28],> 100 µM (inactive)
same,GI50,[29],> 100 µM (inactive)
same,GI50,[30],> 100 µM (inactive)
same,GI50,[32],> 100 µM (inactive)
same,GI50,[33],> 100 µM (inactive)
same,GI50,[34],> 100 µM (inactive)
same,GI50,[35],> 100 µM (inactive)
same,GI50,[37],> 100 µM (inactive)
same,GI50,[38],> 100 µM (inactive)
same,GI50,[56],> 100 µM (inactive)
same,GI50,[39],> 100 µM (inactive)
same,GI50,[40],> 100 µM (inactive)
same,GI50,[41],> 100 µM (inactive)
same,GI50,[42],> 100 µM (inactive)
same,GI50,[43],> 100 µM (inactive)
same,GI50,[44],> 100 µM (inactive)
same,GI50,[45],> 100 µM (inactive)
same,GI50,[46],> 100 µM (inactive)
same,GI50,[47],> 100 µM (inactive)
same,GI50,[48],> 100 µM (inactive)
same,GI50,[49],> 100 µM (inactive)
same,GI50,[51],> 100 µM (inactive)
same,GI50,[52],> 100 µM (inactive)
